Where a name gives a salt, the structure may show the parent alone.
Key:
[1] = Effect of Amikacin and Compound 9 on Kidney Function: creatinine clearance; type: in vivo, Fischer 344 rats; details: FIG. 3
Method: (§1) The study consisted of three groups of Fischer 344 rats aged 6 weeks and weighing approximately 200 g at the start of the study. Group 1 consisted of six rats, randomly selected to receive amikacin only, Group 2 consisted of six rats chosen randomly to receive amikacin and compound 9, and Group 3 consisted of three rats, 2 rats given compound 9 and 1 rat given only 0.5% Methylcellulose, the diluent for compound 9. All animals receiving amikacin were given 320 mg/kg subcutaneously (SQ) from a freshly prepared solution of amikacin of 40 mg/mL. The compound 9 formulation was prepared by weighing 13.08 mg of compound 9 dissolved in 12 mL of 0.5% MC in saline with vortexing, sonification and homogenization to obtain a solution with concentration at 12 mg/12 mL=1 mg/mL, dose volume is 5 mL/kg (5 mg/kg). The compound 9 solution was given by oral gavage at a dose of 5 mg/kg.
(§2) One day prior to the onset of dosing, blood was drawn from all rats for serum analysis and all rats were put into metabolic cages for 24 hour urine collection and analysis. All rats were returned to normal cages and allowed to eat and drink ad lib. All rats received their assigned treatments for 10 days and then were returned to metabolic cages for the 10th day. […] The pathologist read the slides, blinded to the group from which they were assigned. […]

[2] = Auditory Brainstem Response (ABR) Assay; type: in vivo, rats; details: Day 24 vs Day 0, FIG. 2
Method: Chronic treatment of rats with aminoglycosides (AGs) such as kanamycin or amikacin results in an elevation of ABR thresholds, typically most pronounced at higher frequencies. For rats, hearing is tested at a range of frequencies to determine the intensity of sound (measured in decibels) necessary to evoke a response. As hearing loss becomes more severe, a higher intensity is needed to evoke a response. Each rat serves as its own control; hearing thresholds are determined at each frequency prior to any treatment and then at 2 weeks after a 10-day course of AG treatment (or control drug exposures).
The ABR assay measures short latency field potentials recorded from the scalp of animals that were sedated or noninvasively immobilized. […] For each animal, hearing thresholds, wave 1 latencies and input-output functions for stimulus frequencies at 2, 4, 8, 16 and 32 kHz were measured prior to any treatment to determine the initial sensitivity and dynamic range of hearing, and then repeated at the end of drug treatment and at the end of the experiment (2-weeks after dosing). […]
ABR records were evaluated by a “blinded”, trained experimenter. Hearing loss (Threshold Shift) was determined by subtracting the threshold during pre-treatment (Day 0) from the final ABR threshold (Day 24; two weeks following treatment). […]

kidney = assay: Kidney histopathology after amikacin with or without compound 9; type: in vivo, Fischer 344 rats; details: amikacin only, section type (longitudinal or cross) not stated, FIG. 4
Method: as §1, §2

Row | creatinine clearance (CrCl) post treatment vs baseline ([1]; Group 1: amikacin only 320 mg/kg SQ for 10 days) | Hearing loss (Threshold Shift) ([2]; amikacin alone SC 320 mg/kg/day for 10 days) | Structure (SMILES) | creatinine clearance (CrCl) post treatment vs baseline ([1]; Group 2: amikacin 320 mg/kg SQ + compound 9 5 mg/kg oral gavage for 10 days) | Hearing loss (Threshold Shift), high frequency ([2]; AMI/320 (amikacin SC 320 mg/kg/day) + Compound 9 PO 5 mg/kg/day for 10 days) | kidney histopathology damage score (0-4) (kidney; first stated change (3.9 to 3.6)) | kidney histopathology damage score (0-4) (kidney; second stated change (3.9 to 3.1))
1 | – | – | CN1[C@H]2CC[C@@H]1c1c(sc(NC(=O)Nc3ccc(Cl)cc3)c1C(N)=O)C2 [Compound 9, (4R,7S)-2-(3-(4-chlorophenyl)ureido)-9-methyl-5,6,7,8-tetrahydro-4H-4,7-epiminocyclohepta[b]thiophene-3-carboxamide hydrochloride] | significantly different from baseline | robust protection | – | –
2 | significantly different from baseline | hearing loss | NCC[C@H](O)C(=O)N[C@@H]1C[C@H](N)[C@@H](O[C@H]2O[C@H](CN)[C@@H](O)[C@H](O)[C@H]2O)[C@H](O)[C@H]1O[C@H]1O[C@H](CO)[C@@H](O)[C@H](N)[C@H]1O [amikacin] | – | – | 3.9 | 3.9
